Values quoted from earlier work as cited in patent US20140271931A1, “Anti-Acne Topical Films” (Perosphere Inc., priority 2013, published 2014).

Tests used:
[1] = test system: cultured normal and transformed mammalian cells
[2] = test system: cell interior

| solubility in water | Compound | inhibition of growth of cultured normal and transformed mammalian cells [1] | penetration of the cell interior compared with picolinic acid [2] |
| --- | --- | --- | --- |
| readily soluble in water | O=C(O)c1ccccn1 [Picolinic acid, 2-pyridine carboxylic acid] | inhibits the growth | – |
| – | CCCCc1ccc(C(=O)O)nc1 [Fusaric acid] | – | penetrates the cell interior much more easily than picolinic acid |
